Here are results for 6 molecules from article PMC9996794 (ACS Omega, 2023).

SMILES strings stand for the structures.

The conditions of data set [1]: cited from earlier work.
The subject of data set [2] is bovine serum albumin (BSA). The conditions noted are these: cited from earlier work.
Data set [3] in a line: Thermogravimetric analysis. The conditions noted are these: TGA, nitrogen, 10 °C·min^–1. The data set is classed as physicochemical.
Data set [4] is described as follows: Solubility in water or ethanol by the conductivity method. The conditions noted are these: 25 °C.
The subject of data set [5] is L929 cells. Description: Cytotoxicity, MTT assay. The format is cell-based. Conditions: read-out: IC50 (best-fit), 48 h (method b31 says 24 h).
Data set [6] can be described thus: Critical micelle concentration from conductivity measurements. The format is physicochemical. Conditions: 25 °C.
Data set [7] can be described thus: Pharmacokinetic experiments in mice. The data set is classed as in vivo. Conditions: printed as 'higher than that of naproxen'.
The conditions of data set [8]: cited from earlier work. The source holds these as a separate data set.

In the case of `CC(C)OC(=O)[C@@H]1CCCN1.COc1ccc2cc([C@H](C)C(=O)O)ccc2c1` [L-proline isopropyl ester naproxen], in data set [1], the “increase of permeation of naproxen through the skin” value is on record as “almost four times”.

For `CC(C)OC(=O)[C@@H](N)C(C)C.COc1ccc2cc([C@H](C)C(=O)O)ccc2c1` [L-valine isopropyl ester naproxen], the “binding affinity for BSA relative to parent naproxen” value in data set [2] is “about 1 order of magnitude lower”.

A word on the IC50: it is the concentration that gives 50% inhibition. As for `CCCCCCCCCCCCCC[N+](C)(C)Cc1ccccc1.COc1ccc2cc([C@H](C)C(=O)[O-])ccc2c1` [[Ben][Nap], tetradecyldimethylbenzyl ammonium naproxen], the “beginning weight loss temperature” value in data set [3] was determined as 147.05 °C. Besides, the results for the “mass of solute per 100 g of solvent” value in data set [4] (ethanol) and in data set [4] (water) were 97.61 g·100 g^–1 and 61.6251 g·100 g^–1, respectively. In addition, the half-inhibitory concentration (IC50) in data set [5] is 111 µM. The critical micelle concentration is given as 6.25 × 10^–6 mol·L^–1 in data set [6] (ethanol) and 3.05 × 10^–5 mol·L^–1 in data set [6] (water).

With `COc1ccc2cc(C(C)C(=O)[O-])ccc2c1.C[N+](C)(C)CCO` (stereo not shown) [[Ch][Nap], choline naproxen], the “beginning weight loss temperature” value in data set [3] worked out at 171.93 °C. The “mass of solute per 100 g of solvent” value in data set [4] (ethanol) is listed as 70.23 g·100 g^–1; in data set [4] (water), 124.51 g·100 g^–1. Further, the IC50 in data set [5] came to 783 µM. The cmax in data set [7] was 23.051 mg·L^–1. The critical micelle concentration in data set [6] (ethanol) was 3.48 × 10^–6 mol·L^–1; in data set [6] (water) it was 3.75 × 10^–5 mol·L^–1.

In the case of `CCCCCCCCn1cc[n+](C)c1.COc1ccc2cc(C(C)C(=O)[O-])ccc2c1` (stereo not shown) [[Omim][Nap], 1-octyl-3-methylimidazole naproxen], the “beginning weight loss temperature” value in data set [3] worked out at 218.79 °C. The “mass of solute per 100 g of solvent” value in data set [4] (ethanol) came out at 82.00 g·100 g^–1; in data set [4] (water), 112.56 g·100 g^–1. Besides, in data set [5], the IC50 worked out at 174 µM. In addition, the critical micelle concentration in data set [6] (ethanol) was 4.89 × 10^–6 mol·L^–1; in data set [6] (water), 5.68 × 10^–5 mol·L^–1.

With `CCCC[P+](CCCC)(CCCC)CCCC.COc1ccc2cc(C(C)C(=O)[O-])ccc2c1` [[Tbp][Nap], tetrabutyl phosphonium naproxen], the “improvement of dissolution rates compared with the original naproxen” value in data set [8] is “up to 1000 times”.
